Experiment: Volume of distribution at steady state in Sprague-Dawley rat at 0.5 mg/kg, iv by LCMS/MS analysis
Format: ADME, organism-based
Settings: in vivo, read-out: Vdss

Vd: 0.5 L/kg
Compound: Cc1c[nH]c2ncnc(N3CCC(CN)(C(=O)Nc4cccc(OC(=O)N(C)C)c4)CC3)c12 [LX-7101]

Reference: ChEMBL document CHEMBL5108064, “Comparative Analysis of Small-Molecule LIMK1/2 Inhibitors: Chemical Synthesis, Biochemistry, and Cellular Activity” (J Med Chem, 2022)
